What was measured:
TrkB pY816 = test: pY816 in PFC and hippocampus after single LSD injection (ELISA, immunoblot); type: in vivo; details: mouse brain samples, single administration
Procedure: The phosphorylation of TrkB (pY816) and interaction with PLCγ1 were assessed by enzyme-linked immunosorbent assay (ELISA) as previously described[11],[80],[81] with minor modifications. Briefly, white 96-well plates (PerkinElmer, OptiPlate 96F-HB) were precoated with goat anti-TrkB (R&D systems, AF1494; 1:500, overnight, 4 °C) antibody in carbonate buffer (pH 9.8) and blocked with 3% BSA in PBS with 0.1% Tween-20 (PBS-T) for 2 h at room temperature. […] Samples were incubated overnight at 4 °C, and 24 h later plates were washed with PBS-T and incubated with either rabbit anti-phospho-TrkB(Tyr816) (Cell Signaling Technology, 4168S; 1:2,000), rabbit anti-PLCγ1 (Cell Signaling Technologies, 5690S; 1:2,000) or rabbit anti-Trk (Cell Signaling Technologies, 92991; 1:2,000) antibodies overnight at 4 °C. After washing with PBS-T, plates were incubated with HRP-conjugated goat anti-rabbit (Bio-Rad, 170–5046; 1:5,000, 1 h, room temperature) antibody, followed by more washing with PBS-T. Finally, the chemiluminescent signal was read after brief incubation with Pierce ECL substrate (Thermo Fisher Scientific, 32106). Luminescence from blank wells that contained all reagents but the sample lysates was used to determine background signal. […]

TrkB = test: Western blot of TrkB protein expression in N2a cells; type: cell-based; details: WT and Y433F^+/−
Procedure: In a separate set of experiments to examine the effect of 5-HT2A activation, M100907 (100 nM) was administered as a 10 min pretreatment and remained in the medium for the rest of the experiment. Next, cells were lysed and centrifuged. […] The co-immunoprecipitation was carried out as previously described[11],[23],[24] with minor modifications. Briefly, Magnetic Dynabeads Protein G (Invitrogen, 10004D) were coated with anti-TrkB antibody (R&D Systems, AF1494) at 200 ng of antibody per 1 µl of beads in rotation (2 h, 4 °C). Finally, lysates were mixed with the coated beads (100 µg of total protein per 15 µl of beads) and incubated in rotation (overnight, 4 °C).
Proteins were separated according to their molecular weight by SDS–PAGE and transferred to a polyvinylidene fluoride membrane. Membranes were incubated with the following primary antibodies (all 1:1,000 in 3% BSA in TBS-T, overnight, 4 °C): anti-TrkB (R&D Systems, AF1494), anti-β-actin (Sigma-Aldrich, A1978), anti-phospho-mTOR (Cell Signaling Technology, 5536S), anti-phospho-p44/42 MAPK (Erk1/2) (Cell Signaling Technology, 9106S), anti-mTOR (Cell Signaling Technology, 2972S) and anti-p44/42 MAPK (Erk1/2) (Cell Signaling Technology, 9102S). […] Protein bands were visualized using enhanced chemiluminescent substrate (Thermo Scientific, 32132, ECL Plus) and imaged with a charge-coupled device camera (G:BOX, Syngene).

Ntrk2 mRNA = test: RT–qPCR of Ntrk2 mRNA in cortical neurons; details: after LSD treatment
mouse TrkB = biological target: T1, mouse TrkB (Mus musculus, UniProt P15209); test: ^3H-LSD saturation binding to immunoprecipitated TrkB
T1 construct: from tissue; host or cells: mouse embryo (E18) brain
Procedure: Binding assays were performed as previously described with minor modifications. […] Samples from mouse embryo (E18) brains were also lysed, vortexed, sonicated and centrifuged for binding assays. Plates were then washed with PBS. […] For the competition binding assays with biotinylated R,R-HNK, the amino-biotinylation of R,R-HNK was performed using a commercial kit (Thermo Scientific, EZ-Link NHS-PEG4 Biotinylation Kit, 21455) and the reaction monitored by MS. A mixture of biotinylated R,R-HNK (10 µM) and unlabeled compounds (1 pM to 10 µM) in PBS was added to the 96-well plates containing the immunoprecipitated TrkB and incubated for 1 h at room temperature. […] Luminescence was determined via streptavidin conjugated with horseradish peroxidase (HRP; Thermo Fisher Scientific, 21126; 1:5,000, 1 h at room temperature) in reaction with the Pierce ECL substrate (Thermo Fisher Scientific, 32106). Luminescence from blank wells that contained all reagents but the sample lysates was used to determine nonspecific binding. To obtain the binding curves, results from binding assays were fitted to the equation of specific binding with Hill slope from GraphPad Prism 9.2. To calculate koff values, results were fitted to the equation of dissociation of one phase exponential decay from GraphPad Prism 9.2.

T1 sequence (P15209 32-821): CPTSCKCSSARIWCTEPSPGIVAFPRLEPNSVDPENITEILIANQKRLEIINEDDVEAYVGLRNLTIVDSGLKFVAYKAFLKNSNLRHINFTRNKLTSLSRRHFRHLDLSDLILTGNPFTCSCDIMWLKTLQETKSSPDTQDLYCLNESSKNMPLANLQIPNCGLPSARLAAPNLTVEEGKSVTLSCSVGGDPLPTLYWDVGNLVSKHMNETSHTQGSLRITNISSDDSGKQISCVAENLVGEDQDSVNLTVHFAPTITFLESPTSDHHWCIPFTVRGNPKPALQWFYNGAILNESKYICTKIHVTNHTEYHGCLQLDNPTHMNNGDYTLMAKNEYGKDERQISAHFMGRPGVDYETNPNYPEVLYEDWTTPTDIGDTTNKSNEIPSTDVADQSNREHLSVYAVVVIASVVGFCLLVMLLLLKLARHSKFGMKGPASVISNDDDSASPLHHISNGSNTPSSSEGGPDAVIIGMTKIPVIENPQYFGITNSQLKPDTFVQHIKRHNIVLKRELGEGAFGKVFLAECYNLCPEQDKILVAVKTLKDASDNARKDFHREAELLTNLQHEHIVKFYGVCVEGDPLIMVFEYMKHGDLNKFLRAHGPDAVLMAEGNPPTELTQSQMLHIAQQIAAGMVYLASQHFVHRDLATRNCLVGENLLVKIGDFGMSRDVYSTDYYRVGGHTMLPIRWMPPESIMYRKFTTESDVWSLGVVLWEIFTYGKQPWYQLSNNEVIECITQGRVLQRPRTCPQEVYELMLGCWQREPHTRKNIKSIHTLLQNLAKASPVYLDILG

Structure (SMILES): CCN(CC)C(=O)C1C=C2c3cccc4[nH]cc(c34)CC2N(C)C1 (stereo not shown) [LSD, lysergic acid diethylamide]
- TrkB phosphorylation (pY816) (TrkB pY816): increases phosphorylation of TrkB tyrosine 816 (pY816)
- total TrkB expression (TrkB): No differences in total TrkB expression
- Ntrk2 mRNA levels (Ntrk2 mRNA): without any changes in Ntrk2 mRNA levels
- Kd (mouse TrkB): 0.425 ± 0.296 nM
- Bmax (mouse TrkB; ^3H-LSD saturation, mouse TrkB): 7.388 ± 0.771 pmol mg^−1 protein
- Bmax (specific binding with Hill slope, best-fit) (mouse TrkB; ext fig 1b, TRKB.wt, n=2): 117.1
- h (Hill slope, best-fit) (mouse TrkB; ext fig 1b, TRKB.wt, n=2): 0.5552

From paper PMC10244169, “Psychedelics promote plasticity by directly binding to BDNF receptor TrkB” (Nature Neuroscience, 2023)
